US10426753B2, “Supramolecular combinatorial therapeutics” (INVICTUS ONCOLOGY PVT. LTD., priority 2014, dated 2019)

What was measured:
Format in all cases: cell-based
Conditions in all cases: 48, 72 and 96 hrs, supramolecular taxane conjugate
[1] = tested on: MDA-MB-231; test: Cell viability assay (MTT), breast cancer cell line
Experimental: (§1) Mammalian cells were grown in specific culture media, supplemented with 10% fetal bovine serum (FBS) and antibiotics in a humidified environment containing 5% CO2 at 37° C.
(§2) The effects of supramolecular taxane conjugates on the viability of cancer cells were measured using MTT assay (^6,7,8). Cells in 100 μl culture-media were plated in 96-well plates (3000-5000 cells/well) and allowed to adhere overnight in a humidified environment containing 5% CO2 at 37° C. Fresh media (100 μL) containing different concentrations of compounds were added to cells and incubated for 48, 72 and 96 hrs. Following incubation, cell viability was determined using the MTT assay. Similar assay was performed on normal human epithelial cells seeded in 100 μl media in 96-well plate (5000-10,000 cells per well), under identical incubation time and dosage of compounds, used for cancer cells to determine the effect of this targeted therapy on normal cells. The cell viability was plotted as dose-response curves using curve fitting.
(§3) The effects of compounds (New taxane 2 and 16) were evaluated in vitro in comparison with standard taxanes in breast cancer (MDA-MB-231), ovarian cancer (SKOV-3), lung cancer (A549), prostate cancer (DU-145), and colorectal cancer (HCT-116) cell lines.

[2] = tested on: SKOV-3; test: Cell viability assay (MTT), ovarian cancer cell line
Experimental: as §1, §2, §3

[3] = tested on: A549; test: Cell viability assay (MTT), lung cancer cell line
Experimental: as §1, §2, §3

[4] = tested on: DU-145; test: Cell viability assay (MTT), prostate cancer cell line
Experimental: as §1, §2, §3

[5] = tested on: HCT-116; test: Cell viability assay (MTT), colorectal cancer cell line
Experimental: as §1, §2, §3

Measured: efficacy on cell viability versus standard taxanes

CC(=O)O[C@H]1C(=O)[C@@]2(C)[C@H]([C@H](OC(=O)c3ccccc3)[C@]3(O)C[C@H](OC(=O)[C@H](OC(=O)CCC(=O)NCC(=O)O[C@H]4CC[C@@]5(C)C(=CCC6C5CC[C@@]5(C)C6CC[C@@H]5[C@H](C)CCCC(C)C)C4)[C@@H](NC(=O)c4ccccc4)c4ccccc4)C(C)=C1C3(C)C)[C@]1(OC(C)=O)CO[C@@H]1C[C@@H]2O (stereo partly shown) [compound 16]
comparable efficacy to standard taxanes: all assays above

CO[C@H]1C(=O)[C@]2(C)[C@@H](OC)C[C@H]3OC[C@@]3(OC(C)=O)[C@H]2[C@H](OC(=O)c2ccccc2)[C@]2(O)C[C@H](OC(=O)[C@H](OC(=O)CCC(=O)NCC(=O)O[C@H]3CC[C@@]4(C)C(=CCC5C4CC[C@@]4(C)C5CC[C@@H]4[C@H](C)CCCC(C)C)C3)[C@@H](NC(=O)OC(C)(C)C)c3ccccc3)C(C)=C1C2(C)C (stereo partly shown) [compound 2]
comparable efficacy to standard taxanes: all assays above
